Measurements: patent US8022052B2, “Inhibition of PPAR gamma expression by specific osteogenic oxysterols” (The Regents of the University of California, priority 2006, dated 2011)

Assays:
[1] = tested on: M2-10B4 (M2) murine pluripotent bone MSC line; test: Tro-induced adipocyte formation in M2 cells, Oil red O staining; assay type: cell-based, mouse; conditions: for inhibition of Tro-induced adipocyte formation: M2 cells, 10 μM Tro, oxysterol 5 μM, 10 days
Method: (§1) M2 mouse MSCs were purchased from American Type Culture Collection (ATCC, Rockville, Md., USA). […] Cell culture was performed in 24- and 6-well plates for adipogenic differentiation and gene expression studies, respectively, and treatment with test agents was done in growth medium.
Oil red O staining for detection of adipocytes was performed as previously described. […] The number of adipocytes was quantitated by counting Oil red O-positive cells in five separate fields per well, in three wells per experimental condition. The results are reported as the mean of triplicate determination ±SD.
(§2) Adipocyte formation was examined by Oil red O staining. […] PPARγ expression was assessed by RT-qPCR after treating M2 cells with Tro in the presence or absence of 20S. […] M2 cells at confluence were treated with control vehicle, 10 μM Tro, or 5 μM 20S, alone or in combination for 24 hours (FIG. 2A), 48 hours (FIG. 2B), and 96 hours (FIG. 2C). PPARγ mRNA expression was measured by quantitative real-time PCR.
(§3) After 10 days, adipocyte formation was measured by Oil red O staining. The number of adipocytes was determined by counting Oil red O-positive cells in five separate fields per well, in three wells per experimental condition. […] After 48 h, PPARγ mRNA expression was measured by quantitative real-time PCR. […] Luciferase activity was measured after 24 h and normalized for transfection efficiency using the Renilla luciferase activity.
Synthetic oxysterol compounds were studied for inhibition of adipogenesis and PPAR expression. […] After 10 days of treatment, cells were stained with Oil-red-O to detect adipocytes, and the number of positively stained cells was determined using light microscopy. Data from a representative experiment are reported as the mean of triplicate determination (average of five fields per well, 3 wells per experimental condition) ±SD.

[2] = tested on: M2-10B4 (M2) murine pluripotent bone MSC line; conditions: cited from earlier work
[3] = tested on: PPARγ; test: PPARγ mRNA expression in M2 cells by RT-qPCR; assay type: cell-based, mouse; conditions: M2 cells; for reversal of the inhibitory effect of 20S on Tro-induced PPARγ expression: signaling inhibitor
Method: as §1
Total RNA was extracted with the RNA isolation kit from Stratagene (La Jolla, Calif., USA) according to the manufacturer's instructions. RNA was DNase-treated using DNA-free kit from Ambion (Austin, Tex., USA). Three micrograms of RNA was reverse-transcribed using reverse transcriptase from Stratagene to make single-stranded cDNA. The cDNA was mixed with Qi SYBR Green Supermix (Bio-Rad) for quantitative RT-PCR assay using a Bio-Rad I-cycler IQ quantitative thermocycler. All PCR samples were prepared in triplicate wells of a 96-well plate. After 40 cycles of PCR, melt curves were examined to ensure primer specificity. Fold changes in gene expression were calculated using the ΔΔCt method. […] Primers used are as follows: PPARγ2 (5′-[…]-3′ and 5′-[…]-3′), C/EBPα (5′-[…]-3′ and 5′-[…]-3′), ap2 (5′-[…]-3′ and 5′-[…]-3′), LPL (5′-[…]-3′ and 5′-[…]-[…]), GATA2 (5′-[…]-3′ and 5′-[…]-3′), GATA3 (5′-[…]-3′ and 5′-[…]-3′), GILZ (5′-[…]-3′ and 5′-[…]-3′), and pref-1 (5′-[…]-3′ and 5′-[…]-3′).
as §2, §3
After 48 hours of treatment, RNA was extracted from cells and analyzed for PPARγ expression by Q-RT-PCR. Data from a representative experiment, normalized to GAPDH expression, are reported as the mean of triplicate determinations ±SD.

[4] = tested on: M2 cells; test: 45Ca incorporation assay measuring mineralization in M2 cells; assay type: cell-based
Description: One aspect of the invention is an oxysterol (e.g. an isolated oxysterol) of the invention as represented by Formula I, above. For example, the compounds designated as Oxy 7, Oxy 9, Oxy11, Oxy12, Oxy13, Oxy 14, and Oxy 15 can stimulate at least a measurable amount of a hedgehog-mediated pathway and/or osteomorphogenesis or osteoproliferation (or a marker thereof), and/or can inhibit at least a measurable amount of adipocyte morphogenesis or adipocyte proliferation (or a marker thereof). Oxy 3 and Oxy 4 can act as enhancers of activity in combination with other oxysterols.

CC(C)=CCC[C@](C)(O)C1CCC2C3CC=C4C[C@@H](O)CC[C@]4(C)C3CC[C@@]21C (stereo partly shown) [Oxy14]
inhibition of Tro-induced adipocyte formation [1]: inhibitory effect

CC(C)CC[C@H](O)[C@@H](C)[C@H]1CC[C@H]2[C@@H]3CC=C4C[C@@H](O)CC[C@]4(C)[C@H]3CC[C@]12C [Oxy 22S, 22(S)-hydroxycholesterol]
adipogenic differentiation of M2 cells (previously reported) [2]: inhibit

CC(C)CC[C@@H](O)[C@@H](C)[C@H]1CC[C@H]2[C@@H]3CC=C4C[C@@H](O)CC[C@]4(C)[C@H]3CC[C@]12C [Oxy 22R, 22(R)-hydroxycholesterol]
adipogenic differentiation of M2 cells (previously reported) [2]: inhibit

CC(C)CC[C@@H](O)[C@](C)(O)C1CCC2C3CC=C4C[C@@H](O)CC[C@]4(C)C3CC[C@@]21C (stereo partly shown) [Oxy16]
inhibition of Tro-induced adipocyte formation [1]: inhibitory effect

COc1cccc(-c2cc(=O)c3ccccc3o2)c1N [PD98059]
reversal of the inhibitory effect of 20S on Tro-induced PPARγ expression [3]: 45%
reversal of the inhibitory effects of 20S on Tro-induced adipocyte formation ([1]; 10-day M2 cultures, Cyclopamine 4 μM, Dkk-1 1 μg/mL, PD98059 20 μM): 50%

C[C@H](O)[C@@H](C)C1CCC2C3CC=C4C[C@@H](O)CC[C@]4(C)C3CC[C@@]21C (stereo partly shown) [Oxy4]
incorporation of 45Ca in combination with 20(S)-hydroxycholesterol over 20(S)-hydroxycholesterol alone [4]: enhance

C=C(C)CCC[C@](C)(O)C1CCC2C3CC=C4C[C@@H](O)CC[C@]4(C)C3CC[C@@]21C (stereo partly shown) [Oxy13]
inhibition of Tro-induced PPARγ mRNA expression ([3]; 10 μM Tro, oxysterol 5 μM, 24, 48, 96 h (20S), 48 h (Oxy13)): inhibits
inhibition of Tro-induced adipocyte formation [1]: inhibitory effect

Cc1cccc(C[C@](C)(O)C2CCC3C4CC=C5C[C@@H](O)CC[C@]5(C)C4CC[C@@]32C)c1 (stereo partly shown) [Oxy11]
inhibition of Tro-induced adipocyte formation [1]: inhibitory effect

CC[C@H](O)[C@@H](C)C1CCC2C3CC=C4C[C@@H](O)CC[C@]4(C)C3CC[C@@]21C (stereo partly shown) [Oxy 3]
incorporation of 45Ca in combination with 20(S)-hydroxycholesterol over 20(S)-hydroxycholesterol alone [4]: enhance

CC(C)CCCC[C@](C)(O)C1CCC2C3CC=C4C[C@@H](O)CC[C@]4(C)C3CC[C@@]21C (stereo partly drawn) [Oxy12, (3S,8S,9S,10R,13S,14S,17S)-2,3,4,7,8,9,10,11,12,13,14,15,16,17-tetradecahydro-17-((S)-2-hydroxy-7-methyloctan-2-yl)-10,13-dimethyl-1H-cyclopenta[α]phenanthren-3-ol]
inhibition of Tro-induced adipocyte formation [1]: inhibitory effect

B1: Dkk-1: canonical Wnt signaling inhibitor (protein, UniProt O94907 32-266, looked up)
Dickkopf-related protein 1: TLNSVLNSNAIKNLPPPLGGAAGHPGSAVSAAPGILYPGGNKYQTIDNYQPYPCAEDEECGTDEYCASPTRGGDAGVQICLACRKRRKRCMRHAMCCPGNYCKNGICVSSDQNHFRGEIEETITESFGNDHSTLDGYSRRTTLSSKMYHTKGQEGSVCLRSSDCASGLCCARHFWSKICKPVLKEGQVCTKHRRKGSHGLEIFQRCYCGEGLSCRIQKDHHQASNSSRLHTCQRH
reversal of the inhibitory effect of 20S on Tro-induced PPARγ expression [3]: 10%
